Laboratory results: patent USRE48461E1, “Modulation of androgen receptor expression” (Ionis Pharmaceuticals, Inc., priority 2012, dated 2021)
Oligonucleotides are written 5' to 3', each unit as a sugar letter and its base; * is a phosphorothioate linkage, no mark a phosphodiester; rarer units and linkages stand in square brackets, end groups in braces. Plain capitals give the bases only. k = constrained ethyl (cEt); [5mC] = 5-methylcytosine; d = 2'-deoxy (DNA)

Key:
AR mRNA [1] = test: Antisense inhibition of human AR in HuVEC cells, single concentration (electroporation, qRT-PCR RTS3559); assay type: cell-based; details: 500 nM ASO, ~24 h, Table 16
Description: Antisense oligonucleotides were designed targeting an AR nucleic acid and were tested for their effects on AR mRNA in vitro. The antisense oligonucleotides were tested in a series of experiments that had similar culture conditions. […] Human primer probe set RTS3559 (forward sequence [NT], designated herein as SEQ ID NO: 9; reverse sequence [NT], designated herein as SEQ ID NO: 10; probe sequence [NT], designated herein as SEQ ID NO: 11) was used to measure mRNA levels. AR mRNA levels were adjusted according to total RNA content, as measured by RIBOGREEN®. […] A total of 155 oligonucleotides were tested. Additional antisense oligonucleotides were designed targeting an AR nucleic acid and were tested for their effects on AR mRNA in vitro. […] Human primer probe set RTS3559 was used to measure mRNA levels. AR mRNA levels were adjusted according to total RNA content, as measured by RIBOGREEN®. […] A total of 82 oligonucleotides were tested. Additional antisense oligonucleotides were designed targeting an AR nucleic acid and were tested for their effects on AR mRNA in vitro. […] Human primer probe set RTS3559 was used to measure mRNA levels. AR mRNA levels were adjusted according to total RNA content, as measured by RIBOGREEN®. […] A total of 40 oligonucleotides were tested. Additional antisense oligonucleotides were designed targeting an AR nucleic acid and were tested for their effects on AR mRNA in vitro. […] Human primer probe set RTS3559 was used to measure mRNA levels. AR mRNA levels were adjusted according to total RNA content, as measured by RIBOGREEN®. […] A total of 75 oligonucleotides were tested. Additional antisense oligonucleotides were designed targeting an AR nucleic acid and were tested for their effects on AR mRNA in vitro. […] Human primer probe set RTS3559 was used to measure mRNA levels. AR mRNA levels were adjusted according to total RNA content, as measured by RIBOGREEN®. […] A total of 616 oligonucleotides were tested. Additional antisense oligonucleotides were designed targeting an AR nucleic acid and were tested for their effects on AR mRNA in vitro. […] Human primer probe set RTS3559 was used to measure mRNA levels. AR mRNA levels were adjusted according to total RNA content, as measured by RIBOGREEN®. […] A total of 385 oligonucleotides were tested.

AR mRNA [2] = test: Dose-dependent antisense inhibition of human AR in HuVEC cells (electroporation, qRT-PCR RTS3559, IC50); assay type: cell-based; details: Table 29, HuVEC, electroporation, approximately 16 hours
Description: (§1) After a treatment period of approximately 16 hours, RNA was isolated from the cells and AR mRNA levels were measured by quantitative real-time PCR. Human AR primer probe set RTS3559 was used to measure mRNA levels. AR mRNA levels were adjusted according to total RNA content, as measured by RIBOGREEN®. […] The antisense oligonucleotides were tested in a series of experiments that had similar culture conditions.
as §1, §1, §1, §1
(§2) After a treatment period of approximately 16 hours, RNA was isolated from the cells and AR mRNA levels were measured by quantitative real-time PCR. Human AR primer probe set RTS3559 was used to measure mRNA levels. AR mRNA levels were adjusted according to total RNA content, as measured by RIBOGREEN®.
as §2

Substance: 583542 (antisense kA*k[5mC]*kA*dG*d[5mC]*dA*d[5mC]*dT*dG*dG*dA*dG*d[5mC]*kG*kG*k[5mC]) [compound 583542]
- % inhibition (AR mRNA [1]): 45%
- percent inhibition of AR, 46.9 nM (AR mRNA [2]): 9%
- percent inhibition of AR, 187.5 nM (AR mRNA [2]): 28%
- percent inhibition of AR, 750.0 nM (AR mRNA [2]): 47%
- percent inhibition of AR, 3000.0 nM (AR mRNA [2]): 66%
- IC50 (AR mRNA [2]): 900 nM

Substance: 583556 (antisense kA*kA*k[5mC]*dT*dT*d[5mC]*dA*d[5mC]*d[5mC]*dG*dA*dA*dG*kA*kG*kG) [compound 583556]
- % inhibition (AR mRNA [1]): 43%
- percent inhibition of AR, 46.9 nM (AR mRNA [2]): 19%
- percent inhibition of AR, 187.5 nM (AR mRNA [2]): 47%
- percent inhibition of AR, 750.0 nM (AR mRNA [2]): 68%
- percent inhibition of AR, 3000.0 nM (AR mRNA [2]): 66%
- IC50 (AR mRNA [2]): 340 nM

Substance: 583559 (antisense kA*kG*kT*d[5mC]*dT*dT*dT*dA*dG*d[5mC]*dA*dG*d[5mC]*kT*kT*kT) [compound 583559]
- % inhibition (AR mRNA [1]): 52%
- percent inhibition of AR, 46.9 nM (AR mRNA [2]): 30%
- percent inhibition of AR, 187.5 nM (AR mRNA [2]): 49%
- percent inhibition of AR, 750.0 nM (AR mRNA [2]): 63%
- percent inhibition of AR, 3000.0 nM (AR mRNA [2]): 80%
- IC50 (AR mRNA [2]): 220 nM

Substance: 583564 (antisense kG*k[5mC]*kT*dT*d[5mC]*d[5mC]*dT*d[5mC]*d[5mC]*dG*dA*dG*dT*k[5mC]*kT*kT) [compound 583564]
- % inhibition (AR mRNA [1]): 45%
- percent inhibition of AR, 46.9 nM (AR mRNA [2]): 16%
- percent inhibition of AR, 187.5 nM (AR mRNA [2]): 33%
- percent inhibition of AR, 750.0 nM (AR mRNA [2]): 55%
- percent inhibition of AR, 3000.0 nM (AR mRNA [2]): 74%
- IC50 (AR mRNA [2]): 520 nM

Substance: 583566 (antisense k[5mC]*k[5mC]*kT*dT*dG*d[5mC]*dT*dT*d[5mC]*d[5mC]*dT*d[5mC]*d[5mC]*kG*kA*kG) [compound 583566]
- % inhibition (AR mRNA [1]): 47%
- percent inhibition of AR, 46.9 nM (AR mRNA [2]): 0%
- percent inhibition of AR, 187.5 nM (AR mRNA [2]): 28%
- percent inhibition of AR, 750.0 nM (AR mRNA [2]): 50%
- percent inhibition of AR, 3000.0 nM (AR mRNA [2]): 74%
- IC50 (AR mRNA [2]): 730 nM

Substance: 583567 (antisense kG*k[5mC]*kA*d[5mC]*dT*dT*dT*d[5mC]*d[5mC]*dT*dT*dG*d[5mC]*kT*kT*k[5mC]) [compound 583567]
- % inhibition (AR mRNA [1]): 52%
- percent inhibition of AR, 46.9 nM (AR mRNA [2]): 17%
- percent inhibition of AR, 187.5 nM (AR mRNA [2]): 34%
- percent inhibition of AR, 750.0 nM (AR mRNA [2]): 60%
- percent inhibition of AR, 3000.0 nM (AR mRNA [2]): 79%
- IC50 (AR mRNA [2]): 430 nM

Substance: 583571 (antisense kT*k[5mC]*kA*dG*dT*d[5mC]*d[5mC]*dT*dA*d[5mC]*d[5mC]*dA*dG*kG*k[5mC]*kA) [compound 583571]
- % inhibition (AR mRNA [1]): 43%
- percent inhibition of AR, 46.9 nM (AR mRNA [2]): 18%
- percent inhibition of AR, 187.5 nM (AR mRNA [2]): 36%
- percent inhibition of AR, 750.0 nM (AR mRNA [2]): 53%
- percent inhibition of AR, 3000.0 nM (AR mRNA [2]): 59%
- IC50 (AR mRNA [2]): 800 nM

Substance: 583583 (antisense kG*kA*k[5mC]*dT*dG*dA*dG*dG*d[5mC]*dA*dG*d[5mC]*dT*kG*k[5mC]*kG) [compound 583583]
- % inhibition (AR mRNA [1]): 45%
- percent inhibition of AR, 46.9 nM (AR mRNA [2]): 21%
- percent inhibition of AR, 187.5 nM (AR mRNA [2]): 31%
- percent inhibition of AR, 750.0 nM (AR mRNA [2]): 49%
- percent inhibition of AR, 3000.0 nM (AR mRNA [2]): 64%
- IC50 (AR mRNA [2]): 790 nM

Substance: 583584 (antisense k[5mC]*k[5mC]*kG*dA*d[5mC]*dT*dG*dA*dG*dG*d[5mC]*dA*dG*k[5mC]*kT*kG) [compound 583584]
- % inhibition (AR mRNA [1]): 44%
- percent inhibition of AR, 46.9 nM (AR mRNA [2]): 24%
- percent inhibition of AR, 187.5 nM (AR mRNA [2]): 44%
- percent inhibition of AR, 750.0 nM (AR mRNA [2]): 52%
- percent inhibition of AR, 3000.0 nM (AR mRNA [2]): 73%
- IC50 (AR mRNA [2]): 410 nM
